US7691925B2, “Pressure-sensitive adhesive composition, pressure-sensitive adhesive sheets and surface protecting film” (priority 2004, dated 2010)

details: 1 part ionic liquid in 9 parts toluene, 25° C., naked eyes
Procedure: “Toluene-soluble” in the present invention means that an ionic liquid is soluble in toluene, more specifically, refers to such nature that an ionic liquid is uniformly dissolved in toluene upon preparation of a 10 weight % solution of an ionic-liquid in toluene.
9 Parts by weight of toluene (guaranteed grade manufactured by Wako Pure Chemical Industries, Ltd.) was added to 1 part by weight of an ionic liquid, and this was mixed and stirred under a normal temperature (25° C.) for 10 minutes, and allowed to stand for 30 minutes.
Thereafter, solubility was assessed with naked eyes, and toluene-solubility was determined. In assessment criteria, the state where no separated substance is observed, and a substance is uniformly dissolved was assessed as “soluble” (existence of toluene-solubility).

Structure (SMILES) | Toluene-solubility
CCCCC[N+](CCCCC)(CCCCC)CCCCC.O=S(=O)([O-])C(F)(F)F [ionic liquid (1), tetra-n-pentylammonium trifluoromethanesulfonate] | possession of toluene-solubility was confirmed
CCCCCC[N+](CCCCCC)(CCCCCC)CCCCCC.O=S(=O)([O-])C(F)(F)F [ionic liquid (2), tetra-n-hexylammonium trifluoromethanesulfonate] | possession of toluene-solubility was confirmed
CCCCCCC[N+](CCCCCCC)(CCCCCCC)CCCCCCC.O=S(=O)([O-])C(F)(F)F [ionic liquid (3), tetra-n-heptylammonium trifluoromethanesulfonate] | possession of toluene-solubility was confirmed
CCCCCCCC[P+](CCCCCCCC)(CCCCCCCC)CCCCCCCC.O=S(=O)([O-])C(F)(F)F [ionic liquid (4), tetra-n-octylphosphonium trifluoromethanesulfonate] | possession of toluene-solubility was confirmed
CCCC[n+]1cccc(C)c1.O=S(=O)([N-]S(=O)(=O)C(F)(F)F)C(F)(F)F [ionic liquid (6), 1-butyl-3-methylpyridinium bis(trifluoromethanesulfon)imide, reference compound] | possession of toluene-solubility was not confirmed
